Data from patent US9133105B2, “Transcription factor modulators” (C & C BIOPHARMA, LLC, priority 2013, dated 2015).

Assays:
[1] = molecular target: MEF2D and HDAC4 protein interactions (Homo sapiens (Human), UniProt Q14814); experiment: Mammalian two-hybrid assay (GAL4-MEF2D / HDAC4-VP16 luciferase reporter); assay type: cell-based; details: for Relative Activity, I / IC50 / Inhibition of MEF2D/HDAC4 interactions (in words): HeLa cells; for Relative Activity, I: test compound 10 μM overnight, ratio X/Y versus DMSO control, expressed in percentile, low = strong inhibition; for IC50: concentration when X/Y equals 50; for Group: class by relative activity I at 10 μM; for Inhibition of MEF2D/HDAC4 interactions (in words): two-hybrid assay
Description: Detection of MEF2D and HDAC4 interactions. In this mammalian two-hybrid assay, HDAC4 and MEF2D proteins were used as representative members of their respective protein families because the protein-protein interactions involved in the recruitment of class IIa HDACs by MEF2 were highly conserved. Two separate DNA constructs were made with MEF2D fused with the GAL4 DNA binding domain (GAL4-MEF2D) and with the MEF2-binding motif of HDAC4 (AA 155-220) fused with the viral transactivator VP-16 (HDAC4-VP16) (FIG. 1). Human epithelial carcinoma cells (HeLa) were co-transfected with the two DNA constructs (GAL4-MEF2D and HDAC4-VP16) and a reporter plasmid (Gal4Luc). […] MEF2D and HDAC4 protein interactions were detected as a result of the GAL4-MEF2D and HDAC4-VP16 protein complex binding a DNA promoter on the reporter plasmid (Gal4Luc) and driving cellular expression of a luciferase gene (FIG. 1). The measured luciferase protein signal was proportional to the amount of MEF2D and HDAC4 protein interactions occurring with the cell.
The relatively stronger signal from the GAL4VP16 positive control construct was probably due to the fact that the activation domain of VP16 was covalently linked to GAL4, whereas in the mammalian two-hybrid assay it was recruited by protein-protein interactions between HDAC4 and MEF2 (FIG. 2). This assay permitted the detection of the interactions between HDAC4 and MEF2D with minimal interference from endogenous factors. The HDAC4 fragment lacked the catalytic domain so that the deacetylase activity was excluded from the assay.
Detection of inhibition of MEF2D and HDAC4 interactions. Next, the assay was used to test whether the compounds could disrupt the interactions between MEF2D and HDAC4. After co-expressing the GAL4-MEF2D and HDAC4-VP16 DNA constructs and reporter plasmid, the HeLa cells were treated with a test compound (10 μM) overnight. Cells transfected with the positive control GAL4VP16 fusion construct and reporter plasmid were also treated with the test compound (10 μM) overnight. As another control, DMSO was added (but kept below 0.2% V/V) to cells transfected with the positive GAL4VP16 fusion construct or the GAL4-MEF2D and HDAC4-VP16 DNA constructs. A luciferase assay was performed as described above according to the manufacturer's protocol (Promega). The luciferase response was normalized against the Renilla Luciferase as an internal control.
The relative activity and IC50 calculations. […] The relative activity, I, was the ratio of former to later, i.e. X/Y, expressed in percentile. […] The IC50 was the concentration of the compounds when X/Y equals 50.

Nalm-6 leukemia cells = experiment: Inhibition of Nalm-6 leukemia cell growth (CellTiter-Glo); assay type: cell-based; details: 72 hours treatment; for IC50: Homo sapiens, NALM-6
Description: Treatment of cells. Nalm-6 leukemia cells were grown to the logarithmic growth phase and seeded into 24-well plates. Plated cells were incubated at 37° C. in a 5% CO2 humidified incubator for 24 hours and treated with various concentrations of compounds. Treated cells were further incubated for 72 hours and then were examined for cell proliferation. Cell proliferation was determined using the CellTiter-Glo Luminescence Cell Viability assay (Promega Corporation, Madison, Wis.) according to the manufacturer's protocol. The calculated inhibition rate was determined with the following formula: Inhibition rate (%)=(1−Luminescence of experimental group/Luminescence of control group)×100. The 1050 was the calculated concentration of a compound needed to inhibit half of the maximum cell growth (equivalent to cell growth in control group) based on the corresponding dose-response curve under the described experimental conditions.

Chain of MEF2D and HDAC4 protein interactions (Q14814 whole entry, species assumed, the tested form may be a part): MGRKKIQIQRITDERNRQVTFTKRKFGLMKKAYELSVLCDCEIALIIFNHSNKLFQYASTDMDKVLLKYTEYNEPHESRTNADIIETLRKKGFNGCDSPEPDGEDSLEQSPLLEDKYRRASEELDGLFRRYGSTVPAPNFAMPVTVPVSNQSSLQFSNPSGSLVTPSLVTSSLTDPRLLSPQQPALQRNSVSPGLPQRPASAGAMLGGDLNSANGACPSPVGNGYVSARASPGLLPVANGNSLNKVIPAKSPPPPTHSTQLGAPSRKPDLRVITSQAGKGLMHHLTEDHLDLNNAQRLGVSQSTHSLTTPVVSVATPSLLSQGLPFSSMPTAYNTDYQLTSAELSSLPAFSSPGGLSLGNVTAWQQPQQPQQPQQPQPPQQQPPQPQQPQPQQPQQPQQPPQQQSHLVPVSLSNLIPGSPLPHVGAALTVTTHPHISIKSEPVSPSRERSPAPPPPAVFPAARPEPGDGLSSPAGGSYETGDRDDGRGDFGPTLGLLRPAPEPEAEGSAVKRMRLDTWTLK

SMILES | Relative Activity, I [1] | IC50 [1] [nM] | Group [1] | IC50 (Nalm-6 leukemia cells) [nM] | Inhibition of MEF2D/HDAC4 interactions (in words) [1] | Nalm-6 leukemia cell growth inhibition (in words) (Nalm-6 leukemia cells)
Nc1ccccc1NC(=O)CCCCCC(=O)Nc1ccc(O)cc1 [CC3, N^1-(2-aminophenyl)-N^7-(4-hydroxyphenyl)heptanediamide] | 5.4 | 100 | A (A (I < 22 included)) | 2610 |  | 
Nc1ccccc1NC(=O)CCCCCC(=O)NCc1cccnc1 [CC1, N^1-(2-aminophenyl)-N^7-(pyridin-3-ylmethyl)heptanediamide] | 79.2 |  | C (C (50 < I < 100 included)) | > 10000 | mild inhibitory effect | mild inhibitory effect
Nc1ccccc1NC(=O)CCCCCC(=O)Nc1cncc(Br)c1 [CC7, N^1-(2-aminophenyl)-N^7-(5-bromopyridin-3-yl)heptanediamide] | 5.7 | 110 | A (A (I < 22 included)) | 1360 |  | 
Nc1ccccc1NC(=O)CCCCCC(=O)Nc1cccc(O)c1 [CC2, N^1-(2-aminophenyl)-N^7-(3-hydroxyphenyl)heptanediamide] | 4.7 | 90 | A (A (I < 22 included)) | 1460 |  | 
Nc1ccncc1NC(=O)CCCCCC(=O)Nc1cccc(Br)c1 [CC4, N^1-(4-aminopyridin-3-yl)-N^7-(3-bromophenyl)heptanediamide] | 79.5 |  | C (C (50 < I < 100 included)) | > 10000 | mild inhibitory effect | mild inhibitory effect
Nc1ccccc1NC(=O)CCCCCNC(=O)c1ccc(Br)cc1 [CC5, N-(6-((2-aminophenyl)amino)-6-oxohexyl)-4-bromobenzamide] | 3.6 | 70 | A (A (I < 22 included)) | 1380 |  | 
Nc1ccccc1NC(=O)CCCCCC(=O)Nc1ccccc1Br [CC6, N^1-(2-aminophenyl)-N^7-(2-bromophenyl)heptanediamide] | 62.6 |  | C (C (50 < I < 100 included)) | 2050 | weaker inhibition | strong growth inhibition
